From US5137811A, “Method for diagnosing periodontal diseases with a substrate specific for aminopeptidase activity of periodontopathic bacteria” (Sunstar Kabushiki Kaisha, priority 1986, dated 1992)
Where a SMILES comes first, the peptide text is derived from it. The star is where a group is joined. βNA = c1ccc2cc(N*)ccc2c1; Cbz = O=C(OCc1ccccc1)*

Assays:
[1] = test system: periodontopathic bacteria specific aminopeptidase activity; assay: Hydrolytic activity of saliva supernatant, substrates alone or in combination (Experiment 9); format: biochemical; conditions: 37° C. for 4 hours, Table 9
Method: (§1) A saliva mixture was collected from a group consisting of ten healthy subjects and centrifuged to obtain a supernatant. Likewise, centrifuged supernatants were obtained from a group of ten subjects with adult periodontitis and a group of four localized juvenile periodontitis. The supernatant was used as a specimen and its hydrolytic activity was determined according to the same manner as described in Experiment 4 except that the reaction was carried out at 37° C. for 4 hours. As the substrates, there were used N-carbobenzoxy-valyl-glycyl-arginine-p-nitrophenol (CxVGR-pNP), N-carbobenzoxy-valyl-glycylarginine-4-methoxy-2-naphthylamide (CxVGR-4NA) and N-carbobenzoxy-valyl-glycyl-arginine-β-naphthylamide (CxVGR-βNA). Color was developed by using lN sodium hydroxide for CxVGR-pNP and Fast Blue BB for CxVGR-4NA and CxVGR-βNA.
According to the same manner as described in Experiment 7, hydrolytic activity was tested by using N-carbobenzoxy-valyl-glycyl-arginine-β-naphthylamide (CxVGR-βNA), N-benzoyl-arginyl-glycyl-phenylalanyl-proline-β-naphthylamide (BzRGFP-βNA), N-carbobenzoxy-valyl-glycylarginine-p-nitrophenol (CxVGR-pNP) and N-benzoyl-arginylglycyl-phenylalanyl-proline-p-nitrophenol (BzRGFP-pNP) alone or in combination as the substrates.

[2] = test system: Actinobacillus actinomycetemcomitans; assay: Hydrolytic activity of cell suspension, substrates alone or in combination (Experiment 3); format: cell-based; conditions: four strains, Table 3
Summary of the method: (§2)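 Cell suspensions (A660 = 1.0) were grown at 37 °C: Treponema anaerobically in TYGVS for 7 days, others in BHI broth for 48–72 h. They were reacted 60 min at 37 °C with 0.2 mM β-naphthylamide aminopeptidase substrate solutions (0.1 M Tris-HCl, pH 7.0), then Garnet GBC was added and A525 read after 15 min. Mean released β-naphthylamine per species was graded: +++ 40–<80, ++++ ≥80 nmol/ml.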

Fusobacterium nucleatum [3] = assay: as above; format: cell-based; conditions: three strains, Table 3
Summary of the method: as §2

B. gingivalis = assay: as above; format: cell-based; conditions: five strains, Table 3
Summary of the method: as §2

Actinomyces israelli = assay: as above; format: cell-based; conditions: two strains, Table 3
Summary of the method: as §2

Treponema denticola [4] = assay: as above; format: cell-based; conditions: four strains, Table 3
Summary of the method: as §2

[5] = test system: periodontopathic bacteria specific aminopeptidase activity; assay: Hydrolytic activity of saliva supernatant (Experiment 7); format: biochemical; conditions: 37° C. for 4 hours, Table 7
Method: (§3) Specimens of gingival crevicular fluid were collected with paper points from five subjects who were considered to be healthy from their clinical state, six subjects with gingivitis and six subjects with periodontitis. Each specimen was dispersed in Ringer's solution (1.5 ml), and the relative amount of spirochete to total bacteria: [formula] was determined with a phase contrast microscope. Further, the Ringer's solution (0.3 ml) was tested for hydrolytic activity using the substrate solution prepared in the same manner as described in Experiment 1. As substrates, there were used compounds of the formula [1], i.e., N-benzoylvalyl-glycyl-arginine-β-naphthylamide (BzVGR) and N-carbobenzoxy-valyl-glycyl-arginine-β-naphthylamide (CxVGR) were used.
as §1

Capnocytophaga sp. = assay: Hydrolytic activity of oral anaerobe cell suspension on aminopeptidase substrates (Experiment 1); format: cell-based; conditions: four strains, substrate 0.2 mM, pH 7.0, 37° C., 60 minutes, Table 1
Summary of the method: (§4)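 Treponema grown anaerobically in TYGVS (37 °C, 7 days) and other strains in brain heart infusion (37 °C, 48–72 h), then diluted to A660 1.0. Cells reacted 60 min at 37 °C with β-naphthylamine-derived substrates (0.2 mM solution, 0.1 M Tris-HCl pH 7.0). Garnet GBC coupling, A525 after 15 min; activity graded from mean released β-naphthylamine per strain.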

[6] = test system: Actinobacillus actinomycetemcomitans; assay: as above; format: cell-based; conditions: four strains, substrate 0.2 mM, pH 7.0, 37° C., 60 minutes, Table 1
Summary of the method: as §4

Bacteroides gingivalis = assay: as above; format: cell-based; conditions: five strains, substrate 0.2 mM, pH 7.0, 37° C., 60 minutes, Table 1
Summary of the method: as §4

Fusobacterium nucleatum [7] = assay: as above; format: cell-based; conditions: three strains, substrate 0.2 mM, pH 7.0, 37° C., 60 minutes, Table 1
Summary of the method: as §4

Treponema denticola [8] = assay: as above; format: cell-based; conditions: four strains, substrate 0.2 mM, pH 7.0, 37° C., 60 minutes, Table 1
Summary of the method: as §4

[9] = test system: periodontopathic bacteria specific aminopeptidase activity; assay: Hydrolytic activity of gingival crevicular fluid specimens, visually evaluated (Experiment 4); format: biochemical; parameters: key: -: orange; +: dark orange; ++: brown; +++: dark brown
Method: (§5) Substrate compounds for aminopeptidase enzyme having various color developing groups derived from β-naphthylamine were dissolved in 0.1M Tris-HCl buffer (pH 7.0) at the concentration of 0.2 mM to obtain substrate solutions.
(§6) To the substrate solution (1.5 ml) was added the above cell suspension (0.3 ml) and reacted at 37° C. for 60 minutes. After completion of the reaction, a coloring reagent [prepared by dissolving diazonium salt of Garnet GBC in 1M acetate buffer (containing 10% Tween 20, pH: 4.2) at the concentration of 0.5 mg/ml] was added and, after 15 minutes, the absorption at 525 nm was determined with a spectrophotometer.
as §3
In table 4, hydrolytic activity was visually evaluated and expressed as follows: […]

[10] = test system: periodontopathic bacteria specific aminopeptidase activity; assay: Hydrolytic activity of gingival crevicular fluid specimens, OD525 (Experiment 6); format: biochemical
Method: as §5, §6, §3
According to the same manner as described in Experiment 4, hydrolytic activity was tested by using the compounds of the formulas and [2], i.e., glycyl-proline-βnaphthylamide (GP), N-benzoyl-arginyl-glycyl-phenylalanylproline-β-naphthylamide (BzRGFP), N-carbobenzoxy-valylglycyl-arginine-β-naphthylamide (CxVGR) and N-benzoylglycyl-arginine-β-naphthylamide (BzGR) alone or in combination. Hydrolytic activity was determined by measuring absorption at 525 nm (OD525) and expressed as follows.

[11] = Localized juvenile periodontitis subjects
[12] = Gingivitis subject 1 (spirochete 7.3 %)
[13] = Gingivitis subject 2 (spirochete 16.7 %)
[14] = Gingivitis subject 3 (spirochete 20.5 %)
[15] = Gingivitis subject 4 (spirochete 6.8 %)
[16] = Gingivitis subject 5 (spirochete 7.3 %)
[17] = Gingivitis subject 6 (spirochete 14.4 %)
[18] = Healthy subject 1 (spirochete 0.1 %)
[19] = Healthy subject 2 (spirochete 2.5 %)
[20] = Healthy subject 3 (spirochete 1.1 %)
[21] = Healthy subject 4 (spirochete 0.6 %)
[22] = Healthy subject 5 (spirochete 1.3 %)
[23] = Periodontitis subject 1 (spirochete 45.2 %)
[24] = Periodontitis subject 2 (spirochete 30.3 %)
[25] = Periodontitis subject 3 (spirochete 34.6 %)
[26] = Periodontitis subject 4 (spirochete 21.2 %)
[27] = Periodontitis subject 5 (spirochete 40.3 %)
[28] = Periodontitis subject 6 (spirochete 35.1 %)

CC(C)[C@H](NC(=O)OCc1ccccc1)C(=O)NCC(=O)N[C@@H](CCCNC(=N)N)C(=O)Nc1ccc2ccccc2c1 [CxVGR, N-carbobenzoxy-valyl-glycyl-arginine-β-naphthylamide] (Cbz-Val-Gly-Arg-βNA) was tested. Which hydrolytic activity ([1]; Adult Periodontitis subjects) did it give?
The hydrolytic activity was 34.8 ± 10.2 nmol/mL.

And the hydrolytic activity ([1]; Healthy subjects)?
Its hydrolytic activity is 15.0 ± 8.8 nmol/mL.

What about the hydrolytic activity [1, 11] of the same compound?
Its hydrolytic activity is 31.5 ± 9.8 nmol/mL.

What about the “hydrolytic activity (release amount)” value [2] of the same compound?
The value was “- (release amount<5 nmol/ml)”.

And the “hydrolytic activity (release amount)” value (Fusobacterium nucleatum [3])?
Its value is “- (release amount<5 nmol/ml)”.

And the “hydrolytic activity (release amount)” value (B. gingivalis)?
Its value is “+++ (40≤release amount<80 nmol/ml)”.

And the “hydrolytic activity (release amount)” value (Actinomyces israelli)?
Its value is “- (release amount<5 nmol/ml)”.

What about the “hydrolytic activity (release amount)” value (Treponema denticola [4]) of the same compound?
The value was “+++ (40≤release amount<80 nmol/ml)”.

And the hydrolytic activity ([5]; Adult Periodontitis subjects)?
Its hydrolytic activity is 35.6 ± 9.8 nmol/mL.

What about the hydrolytic activity ([5]; Healthy subjects) of the same compound?
The hydrolytic activity was 16.1 ± 10.3 nmol/mL.

And the hydrolytic activity [5, 11]?
Its hydrolytic activity is 33.4 ± 10.0 nmol/mL.

What about the “hydrolytic activity (average amount of released β-naphthylamine)” value (Capnocytophaga sp.) of the same compound?
The value was “- (release amount<5 nmol/ml)”.

What about the “hydrolytic activity (average amount of released β-naphthylamine)” value [6] of the same compound?
The value was “- (release amount<5 nmol/ml)”.

And the “hydrolytic activity (average amount of released β-naphthylamine)” value (Bacteroides gingivalis)?
Its value is “+++ (release amount≥40 nmol/ml)”.

What about the “hydrolytic activity (average amount of released β-naphthylamine)” value (Fusobacterium nucleatum [7]) of the same compound?
The value was “- (release amount<5 nmol/ml)”.

And the “hydrolytic activity (average amount of released β-naphthylamine)” value (Treponema denticola [8])?
The value was “+++ (release amount≥40 nmol/ml)”.

What about the “hydrolytic activity, visually evaluated” value [9, 12] of the same compound?
The value was “+”.

And the “hydrolytic activity, visually evaluated” value [9, 13]?
The value was “+”.

What about the “hydrolytic activity, visually evaluated” value [9, 14] of the same compound?
The value was “++”.

What about the “hydrolytic activity, visually evaluated” value [9, 15] of the same compound?
The value was “-”.

And the “hydrolytic activity, visually evaluated” value [9, 16]?
The value was “-”.

And the “hydrolytic activity, visually evaluated” value [9, 17]?
Its value is “+”.

What about the “hydrolytic activity, visually evaluated” value [9, 18] of the same compound?
The value was “-”.

And the “hydrolytic activity, visually evaluated” value [9, 19]?
Its value is “+”.

And the “hydrolytic activity, visually evaluated” value [9, 20]?
The value was “-”.

And the “hydrolytic activity, visually evaluated” value [9, 21]?
Its value is “-”.

What about the “hydrolytic activity, visually evaluated” value [9, 22] of the same compound?
The value was “-”.

What about the “hydrolytic activity, visually evaluated” value [9, 23] of the same compound?
The value was “+++”.

What about the “hydrolytic activity, visually evaluated” value [9, 24] of the same compound?
The value was “+++”.

And the “hydrolytic activity, visually evaluated” value [9, 25]?
Its value is “+++”.

And the “hydrolytic activity, visually evaluated” value [9, 26]?
The value was “+++”.

What about the “hydrolytic activity, visually evaluated” value [9, 27] of the same compound?
Its value is “+++”.

What about the “hydrolytic activity, visually evaluated” value [9, 28] of the same compound?
The value was “+++”.

And the “hydrolytic activity, absorption at 525 nm (OD525)” value (from here on “hydrolytic activity, absorption”) [10, 12]?
The value was “+ (0.1≤OD525 <0.2)”.

What about the “hydrolytic activity, absorption” value [10, 13] of the same compound?
The value was “+ (0.1≤OD525 <0.2)”.

And the “hydrolytic activity, absorption” value [10, 14]?
The value was “++ (0.2≤OD525 <0.4)”.

And the “hydrolytic activity, absorption” value [10, 15]?
The value was “- (OD525 <0.1)”.

What about the “hydrolytic activity, absorption” value [10, 16] of the same compound?
The value was “- (OD525 <0.1)”.

And the “hydrolytic activity, absorption” value [10, 17]?
Its value is “+ (0.1≤OD525 <0.2)”.

What about the “hydrolytic activity, absorption” value [10, 18] of the same compound?
The value was “- (OD525 <0.1)”.

And the “hydrolytic activity, absorption” value [10, 19]?
Its value is “+ (0.1≤OD525 <0.2)”.

And the “hydrolytic activity, absorption” value [10, 20]?
The value was “- (OD525 <0.1)”.

What about the “hydrolytic activity, absorption” value [10, 21] of the same compound?
Its value is “- (OD525 <0.1)”.

What about the “hydrolytic activity, absorption” value [10, 22] of the same compound?
The value was “- (OD525 <0.1)”.

And the “hydrolytic activity, absorption” value [10, 23]?
Its value is “+++ (0.4≤OD525 <0.8)”.

And the “hydrolytic activity, absorption” value [10, 24]?
The value was “+++ (0.4≤OD525 <0.8)”.

And the “hydrolytic activity, absorption” value [10, 25]?
The value was “+++ (0.4≤OD525 <0.8)”.

What about the “hydrolytic activity, absorption” value [10, 26] of the same compound?
The value was “+++ (0.4≤OD525 <0.8)”.

And the “hydrolytic activity, absorption” value [10, 27]?
The value was “+++ (0.4≤OD525 <0.8)”.

What about the “hydrolytic activity, absorption” value [10, 28] of the same compound?
Its value is “+++ (0.4≤OD525 <0.8)”.
